Experimental data published in ChEMBL document CHEMBL1153662, “Synthesis and antiviral activity of alkylphosphonic acid derivatives of oxetanocin-A” (Bioorg Med Chem Lett, 1994).

What was measured:
Assay type in all cases: functional, cell-based
[1] = tested on: MT4; assay: In vitro […] against HIV-1 in MT-4 cells by indirect an immunofluorescence assay at concentration up to 100 ug/mL; devoid of activity; conditions: Homo sapiens
[2] = tested on: Vero; assay: In vitro antiviral activity against HSV-1 in vero cells by a plaque reduction assay at concentration up to 10 ug/mL; devoid of activity; conditions: Chlorocebus sabaeus
[3] = tested on: Vero; assay: In vitro antiviral activity against HSV-2 in vero cells by a plaque reduction assay at concentration up to 10 ug/mL; devoid of activity; conditions: Chlorocebus sabaeus

Measured: Activity

Nc1ncnc2c1ncn2C1OC(C(O)P(=O)(O)O)C1CO (configuration not stated)
devoid of activity: all assays above

Nc1ncnc2c1ncn2C1OC(/C=C/P(=O)(O)O)C1CO (configuration not stated)
devoid of activity: all assays above

Nc1ncnc2c1ncn2C1OC(CCP(=O)(O)O)C1CO (configuration not stated)
devoid of activity: all assays above

Nc1ncnc2c1ncn2C1OC(CCCP(=O)(O)O)C1CO (configuration not stated)
devoid of activity: all assays above
